Results reported in patent US10272117B2, “Methods of using an activator of cereblon for neural cell expansion and the treatment of central nervous system disorders” (Celgene Corporation, priority 2014, dated 2019).
Peptide text beside a SMILES is read from it. * marks the point of attachment. Cbz = O=C(OCc1ccccc1)*

Tests used:
zebrafish = assay: Resistance to thalidomide in brain development (brain thickness to body length); type: in vivo; details: BRD7-knockdown larvae, 400 μM thalidomide
Procedure: To analyze the functional relationship between thalidomide and BRD7, brain development of BRD7-knockdown zebrafish treated with thalidomide was examined and compared with that of normal zebrafish treated with thalidomide. […] FIGS. 12A and 12B show the normal zebrafish treated with 400 μM thalidomide. FIGS. 12C and 12D show the BRD7-knockdown zebrafish treated with 400 μM thalidomide. FIGS. 12A′ and 12C′ show the brain regions of the normal zebrafish treated with 400 μM thalidomide. FIGS. 12B′ and 12D′ show the brain regions of the BRD7-knockdown zebrafish treated with 400 μM thalidomide. […] The percentages of brain thickness to body length in the normal and the BRD7-knockdown zebrafish, with or without thalidomide treatments were also measured. […] The brain size of the BRD7-knockdown larvae incubated in thalidomide is 98.8% of that of the BRD7-knockdown larvae incubated in the absence of thalidomide.

zebrafish embryos = assay: Quantitative PCR of gene expression in zebrafish embryos; type: in vivo; details: 11 hpf
Procedure: BRD7-knockdown zebrafish embryos show similar phenotypes as CRBN-overexpressing zebrafish embryos. For example, expression of HuC in untreated, CRBN-overexpressing, and BRD7-knockdown zebrafish embryos was compared by quantitative PCR. Quantitative PCR was performed as follows: 1.7 μg of random […] and oligo-dT primed cDNA synthesized by ReverTra Ace qPCR RT Kit (TOYOBO, Japan) (as template) were used for reverse transcription by THUNDERBIRD™ SYBR® qPCR Mix (Toyobo, Japan). 0.25 mM of each forward and reverse primers were used in the reaction, wherein the sequence of the forward primer was 5′-[…]-3′ (SEQ ID NO: 9); and the sequence of the reverse primer was 5′-[…]-3′ (SEQ ID NO: 10).
Expression of Pou5f1 (Oct3/4), c-Myc, Sox2, and Nanog in zebrafish embryos was analyzed by quantitative PCR. Quantitative RT (qRT)-PCR was performed as follows: 1.7 μg of random hexamer and oligo-dT primed cDNA synthesized by ReverTra Ace qPCR RT Kit (TOYOBO, Japan) (as template) were used for reverse transcription by THUNDERBIRD™ SYBR® qPCR Mix (Toyobo, Japan). 0.25 mM of each forward and reverse primers was used in the reaction. The sequences of primers for c-Myc are as follows: forward primer is 5′-[…]-3′ (SEQ ID NO: 15), and reverse primer is 5′-GTAAAACGACGGCCAGT-3′ (SEQ ID NO: 16). The sequences of primers for sox2 are as follows: forward primer is 5′-ACCCCGGAGGAAAACCAA-3′ (SEQ ID NO: 17), and reverse primer is 5′-CCCGGCAGGGTGTACTTG-3′ (SEQ ID NO: 18). The sequences of primers for nanog are as follows: forward primer is 5′-TACCCAACACACCAGCTTC-3′ (SEQ ID NO: 19), and reverse primer is 5′-GAAGGGTGTTTTTGGAGGA-3′ (SEQ ID NO: 20).
Expression of a pool of three genes, Ascl1, Brn2 (Pou3f2), and Myt1la, is sufficient to directly reprogram embryonic and postnatal fibroblasts into functional neurons. See, e.g., Vierbuchen and Wernig, Nat Biotechnol. 29:892-907 […]. […] Primer sequences for amplification for Ascl1a are as follows: forward primer is 5′-ACGAGCATGACGCCGTA-3′ (SEQ ID NO: 21), and reverse primer is 5′-[…]-3′ (SEQ ID NO: 22). Primer sequences for amplification for Pou3f2b are as follows: forward primer is 5′-[…]-3′ (SEQ ID NO: 23), and reverse primer is 5′-[…]-3′(SEQ ID NO: 24). Primer sequences for amplification for Myt1la are as follows: forward primer is 5′-[…]-3′ (SEQ ID NO: 25), and reverse primer is 5′-[…]-3′ (SEQ ID NO: 26). FIG. […]
Notch3 and Neuropilin2b (Nrp2b) are required for cell proliferation progression. Notch3 regulates the timing of neural differentiation from undifferentiated or immature cells, and Nrp2b regulates cell proliferation and remodeling in mesenchymal stem cells by cooperating with PDGF (platelet-derived growth factor). Therefore, expression of Notch3 and Neuropilin 2b (Nrp2b) was analyzed in untreated and CRBN-overexpressing zebrafish embryos by quantitative PCR. The primers used for Notch3 are as follows: the sequence for forward primer is 5′-[…]-3′ (SEQ ID NO: 27), and the sequence for reverse primer is 5′-[…]-3′ (SEQ ID NO: 28). The primers used for Nrp2b are as follows: the sequence of forward primer is 5′-[…]-3′ (SEQ ID NO: 29), and the sequence of reverse primer is 5′-[…]-3′ (SEQ ID NO: 30). FIG. 29A is a histogram showing the mRNA level of Notch3 and Nrp2b in untreated, CRBN-overexpressing, and thalidomide-treated zebrafish embryos at 11 hpf by quantitative PCR. As shown, expression of Notch3 in the CRBN-overexpressing embryos increased to 1.8-fold of the level in the untreated embryos at 11 hpf, and expression of Nrp2b in the CRBN-overexpressing embryos increased to 2.7-fold of the level in the untreated embryos at the same stage.
Elval3 (Huc) is a neural progenitor marker. Expression of Elavl3 (Huc) was also analyzed by quantitative PCR and in situ hybridization. […]

CRBN = assay: Detection of the CRBN ubiquitin ligase activity using live cells; type: cell-based; details: mammalian cells expressing FLAG-CRBN, immunoblotting
Procedure: This process was carried out basically in accordance with the method of Ohtake et al. See Ohtake et al., Nature, 446:562-566 (2007). MG132, which was a proteasome inhibitor, was applied to mammalian cells expressing CRBN fused with a FLAG epitope tag, and the cells were left still. Subsequently, the cells were disrupted, and from the resulting cell lysate solution, FLAG was purified, and CRBN was extracted. Then immunoblotting was performed under similar, but stricter, conditions to the above, whereby self-ubiquitination was detected and measured.

[1] = fold of level in untreated embryos

SMILES	brain size of BRD7-knockdown larvae incubated in thalidomide relative to absence of thalidomide (zebrafish) [%]	expression of Nanog (change) (zebrafish embryos; FIG. 13)	expression of Pou5f1 (change) (zebrafish embryos; FIG. 13)	expression of Zic3 (change) (zebrafish embryos; FIG. 13)	Notch3 mRNA expression (zebrafish embryos; [1]) [fold]	Nrp2b mRNA expression (zebrafish embryos; [1]) [fold]	bands representing CRBN-containing (self-ubiquitinated) proteins (CRBN)
O=C1CCC(N2C(=O)c3ccccc3C2=O)C(=O)N1 (stereo not shown) [thalidomide, reference compound]	98.8	decreased	decreased	decreased	0.3	0.4	–
CC(C)C[C@@H](C=O)NC(=O)[C@H](CC(C)C)NC(=O)[C@H](CC(C)C)NC(=O)OCc1ccccc1 [MG132] (Cbz-Leu-Leu-Leu-aldehyde)	–	–	–	–	–	–	a number of bands representing CRBN-containing proteins were detected
